Test results published in article PMC11672400, “Synthesis, Spectroscopic Characterization, Structural Analysis, and Evaluation of Anti-Tumor, Antimicrobial, and Antibiofilm Activities of Halogenoaminopyrazoles Derivatives” (Antibiotics, 2024).
≈ marks a conversion by molar mass, not a printed value. Where two headings read alike, the source gives them in different places.

Columns and labels:
[1] = system: Pseudomonas aeruginosa ATCC27853; assay: MIC by serial microdilution in liquid medium; format: cell-based; settings: 24 h, 37 °C; for MIC: Pseudomonas aeruginosa, ATCC27853, read-out: Minimum inhibitory concentration, Pseudomonas aeruginosa ATCC27853
Description: (§1) The minimum inhibitory concentrations (MIC) were determined by the serial microdilution method in a liquid medium (Tryptone Soy Broth), on 96-well plates. Serial binary dilutions of the compound stock solution (10 mg/mL in DMSO) were carried out in 90 µL of culture medium and 10 µL of 10^6 CFU/mL (Colony Forming Units) microbial suspension. Each test included a positive control (wells with culture medium and microbial suspension) and a negative control for medium sterility. After incubation at 37 °C for 24 h the plates were visually examined, and optical density was measured at 620 nm. […] The MIC value (µg/mL) for the chemical compound was determined by the concentration in the final well without bacterial growth. All experiments were performed in triplicate.

[2] = system: Enterococcus faecalis ATCC29212; assay: MIC by serial microdilution in liquid medium; format: cell-based; settings: 24 h, 37 °C; for MIC: Enterococcus faecalis, ATCC29212, read-out: Minimum inhibitory concentration, Enterococcus faecalis ATCC29212
Description: as §1

[3] = system: Escherichia coli ATCC25922; assay: MIC by serial microdilution in liquid medium; format: cell-based; settings: 24 h, 37 °C; for MIC: Escherichia coli, ATCC25922, read-out: Minimum inhibitory concentration, Escherichia coli ATCC25922
Description: as §1

[4] = system: Staphylococcus aureus ATCC25923; assay: MIC by serial microdilution in liquid medium; format: cell-based; settings: 24 h, 37 °C; for MIC: Staphylococcus aureus, ATCC25923, read-out: Minimum inhibitory concentration, Staphylococcus aureus ATCC25923
Description: as §1

[5] = MTT cell viability / cytotoxicity on normal fibroblasts; format: cell-based, mouse; settings: mouse
Excerpt: (§2) Merck chemicals were utilized.
(§3) Untreated cells were used as control, considered 100% viable cells.

[6] = system: Pseudomonas aeruginosa ATCC27853; assay: Antibiofilm assay (crystal violet), MBIC; format: cell-based; settings: 37 °C; for Minimum biofilm inhibition concentration (MBIC), Pseudomonas aeruginosa ATCC27853: 24 h; for minimal effective concentration: Pseudomonas aeruginosa, ATCC27853, 24 h, read-out: Minimum biofilm inhibition concentration (MBIC), Pseudomonas aeruginosa ATCC27853
Description: (§4) Microorganisms were grown in 96-well plates filled with nutrient broth along with test substances, followed by incubation at 37 °C for 24 h. Plates were cleaned and rinsed thrice using SPW solution (sterile physiological water). After that, the attached cells were treated with 110 μL of methanol for 5 min, and then the methanol was removed by turning it upside down. […] Once stained, the solution was removed, and the plates were washed with running tap water. […] The antimicrobial/antibiofilm activity of the compounds was evaluated against two antibiotics, commercial formulations of metronidazole and nitrofurantoin.

[7] = system: Enterococcus faecalis ATCC29212; assay: Antibiofilm assay (crystal violet), MBIC; format: cell-based; settings: 37 °C; for minimal effective concentration: Enterococcus faecalis, ATCC29212, 24 h, read-out: Minimum biofilm inhibition concentration (MBIC), Enterococcus faecalis ATCC29212
Description: as §4

[8] = system: Escherichia coli ATCC25922; assay: Antibiofilm assay (crystal violet), MBIC; format: cell-based; settings: 37 °C; for minimal effective concentration: Escherichia coli, ATCC25922, 24 h, read-out: Minimum biofilm inhibition concentration (MBIC), Escherichia coli ATCC25922
Description: as §4

[9] = system: Staphylococcus aureus ATCC25923; assay: Antibiofilm assay (crystal violet), MBIC; format: cell-based; settings: Staphylococcus aureus, ATCC25923; 24 h, 37 °C; read-out: Minimum biofilm inhibition concentration (MBIC), Staphylococcus aureus ATCC25923
Description: as §4

[10] = system: Pseudomonas aeruginosa ATCC27853; assay: Qualitative evaluation of antimicrobial activity (inhibition zone, spot on agar); format: cell-based; design: key: (+) inhibited bacterial growth; (-) did not inhibit bacterial growth; settings: 0.06 g/2 mL DMSO, 5 µL spot
Description: (§5) For testing the antimicrobial/antibiofilm activity, the concentration of the studied compounds was identical to 0.06 g/2 mL DMSO. 0.5 Standard McFarland suspension was used, which was inoculated onto Mueller Hinton agar plates, (Remel, Lenexa, KS, USA), 5 µL of each compound was spotted and incubated overnight at 37 °C. Antimicrobial activity was observed as zones of inhibition formed around the spot.

[11] = system: Enterococcus faecalis ATCC29212; assay: as above; format: cell-based; design: key: (+) inhibited bacterial growth; (-) did not inhibit bacterial growth; settings: 0.06 g/2 mL DMSO, 5 µL spot
Description: as §5

[12] = system: Escherichia coli ATCC25922; assay: as above; format: cell-based; design: key: (+) inhibited bacterial growth; (-) did not inhibit bacterial growth; settings: 0.06 g/2 mL DMSO, 5 µL spot
Description: as §5

[13] = system: Staphylococcus aureus ATCC25923; assay: as above; format: cell-based; design: key: (+) inhibited bacterial growth; (-) did not inhibit bacterial growth; settings: 0.06 g/2 mL DMSO, 5 µL spot
Description: as §5

[14] = system: HEp-2 epithelial tumor cells; assay: MTT cell viability / anti-tumor activity; settings: Homo sapiens, read-out: Cell viability on Hep2 cells (%)
Description: The cytotoxicity of the halogenoaminopyrazole derivatives 4a–f and 5a–e was tested on L929 mouse fibroblast cells, and their anti-tumor activity was evaluated on the human carcinoma epithelial cell line HEp-2. The experiments were performed in a concentration range of 3.1–50 μg/mL.
The MTT test was used, 3-(4,5-dimethylthiazol-2-yl)-2,5-diphenyl tetrazolium bromide), which is reduced to insoluble purple-blue formazan crystals precipitated by living cells. Cell viability assessed using the MTT assay reflects the activity of mitochondrial enzymes in treated cells compared to the control culture of untreated cells.
To assess the biocompatibility of the substances, a stable mouse fibroblast cell line, NCTC (clone 929), was grown in minimal essential medium (MEM) with 10% fetal bovine serum (FBS) and 2 mM L-glutamine, along with 100 U/mL penicillin, 100 µg/mL streptomycin, and 500 µg/mL neomycin. The concentration of the compounds used was 0.06 g/2 mL DMSO.
In cytotoxicity experiments, compound solutions were utilized at concentrations of 3.1 μg/mL, 6.25 μg/mL, 12.5 μg/mL, 25 μg/mL, and 50 μg/mL. The NCTC cell suspension was placed into 96-well culture plates with a concentration of 4 × 10^4 cells/mL and incubated at 37 °C for 24 h in a 5% CO2 humidified atmosphere. The compounds under study were placed in sets of three at varying concentrations ranging from 3.1 μg/mL to 50 μg/mL in every well, and the plates were then kept under standard conditions for 48 h. Cell viability was determined through the utilization of the MTT assay. Next, the MTT solution was removed, then isopropanol was added to solubilize the formazan crystals. The colored solution was then measured for absorbance at 570 nm using a Berthold Technologies, LB 940 microplate reader (Bad Wildbad, Germany). The outcomes were determined based on Formula (1) while considering that the recorded optical density is directly related to the number of viable cells in the cell culture being examined [35, 36]. % cell viability = (OD sample/OD control) × 100%(1)
For each tested compound, a graph representing percentage cell viability versus concentrations (in the range 3.1–50 µg/mL) was obtained. Then, the IC50 value was calculated by using ED50 plus V1.0 software.

[15] = system: NCTC (clone 929) mouse fibroblast cells; assay: MTT cell viability / cytotoxicity on normal fibroblasts; format: cell-based; settings: Mus musculus, NCTC clone 929; NCTC normal fibroblasts, MTT, 48 h
Excerpt: as §2, §3

[16] = NCTC clone 929 (L929) mouse fibroblast cells
[17] = read-out: Cell viability on NCTC cells (%)

Row | Compound | MIC [1] [µg/mL] | MIC [2] [µg/mL] | MIC [3] [µg/mL] | MIC [4] [µg/mL] | Minimum biofilm inhibition concentration (MBIC), Pseudomonas aeruginosa ATCC27853 [6] [µg/mL] | minimal effective concentration [6] [µg/mL] | minimal effective concentration [7] [µg/mL] | minimal effective concentration [8] [µg/mL] | minimal effective concentration [9] [µg/mL] | Qualitative antimicrobial activity, Pseudomonas aeruginosa ATCC27853 [10] | viability at 3.1 µg/mL ([14]; HEp-2, 24 h) [%] | viability at 6.25 µg/mL ([14]; HEp-2, 24 h) [%] | viability at 12.5 µg/mL ([14]; HEp-2, 24 h) [%] | viability at 25 µg/mL ([14]; HEp-2, 24 h) [%] | viability at 50 µg/mL ([14]; HEp-2, 24 h) [%] | viability at 3.1 µg/mL ([14]; HEp-2, 48 h) [%] | viability at 6.25 µg/mL ([14]; HEp-2, 48 h) [%] | viability at 12.5 µg/mL ([14]; HEp-2, 48 h) [%] | viability at 25 µg/mL ([14]; HEp-2, 48 h) [%] | viability at 50 µg/mL ([14]; HEp-2, 48 h) [%] | other results
1 | Cc1nn(CNc2ccc(I)cc2)c(C)c1[N+](=O)[O-] [4d, N-[(3,5-dimetyl-4-nitro-1H-pyrazol-1-yl)-methyl]-4-iodoaniline] | 930 ± 0.02 (≈ 2.5 mM) | 930 ± 0.53 (≈ 2.5 mM) | 930 ± 0.1 (≈ 2.5 mM) | 930 ± 0.55 (≈ 2.5 mM) | 460 ± 0.05 | 460 | 930 ± 0.53 | 930 ± 0.18 | 930 ± 0.03 | - | 105 ± 1.93 | 110 ± 2.64 | 113 ± 3.48 | 109 ± 2.75 | 106 ± 1.63 | 101 ± 3.72 | 110 ± 3.49 | 111 ± 2.8 | 101.6 ± 0.56 | 69 ± 0.81 | viability at 24 h, 3.1 µg/mL [5, 16]: 99.9 ± 2.31%; viability at 48 h, 3.1 µg/mL [5, 16]: 95.69 ± 0.8%; viability at 24 h, 6.25 µg/mL [5, 16]: 101 ± 2.24%; viability at 48 h, 6.25 µg/mL [5, 16]: 96.26 ± 0.78%; viability at 24 h, 12.5 µg/mL [5, 16]: 103 ± 3.44%; viability at 48 h, 12.5 µg/mL [5, 16]: 92.6 ± 1.4%; viability at 24 h, 25 µg/mL [5, 16]: 102 ± 1.07%; viability at 48 h, 25 µg/mL [5, 16]: 91.5 ± 1.41%; viability at 24 h, 50 µg/mL [5, 16]: 101 ± 2.55%; viability at 48 h, 50 µg/mL [5, 16]: 88.2 ± 2.1%; Qualitative antimicrobial activity, Enterococcus faecalis ATCC29212 [11]: -; Qualitative antimicrobial activity, Escherichia coli ATCC25922 [12]: -; Qualitative antimicrobial activity, Staphylococcus aureus ATCC25923 [13]: -; melting point: 91 to 92 °C
2 | Cc1nn(CN(Cn2nc(C)c([N+](=O)[O-])c2C)c2ccc(Br)cc2)c(C)c1[N+](=O)[O-] [5c, N,N-bis-[(3,5-dimetyl-4-nitro-1H-pyrazol-1-yl)-methyl]-4-bromoaniline] | 3750 (≈ 7.84 mM) | 3750 (≈ 7.84 mM) | 3750 (≈ 7.84 mM) | 3750 (≈ 7.84 mM) | 1870 ± 0.53 | 1870 | 1870 | 3750 | 1870 ± 0.15 | - | 112 ± 2.32 | 114 ± 2.18 | 117 ± 2.83 | 113 ± 1.52 | 102 ± 2.71 | 96.9 ± 1.38 | 96.5 ± 1.58 | 89.2 ± 2.02 | 65.3 ± 2.09 | 50.2 ± 2.02 | Minimum inhibitory concentration, Pseudomonas aeruginosa ATCC27853 [1]: 3750 ± 0.51 µg/mL (≈ 7.84 mM); Minimum inhibitory concentration, Enterococcus faecalis ATCC29212 [2]: 3750 ± 0.08 µg/mL (≈ 7.84 mM); Minimum inhibitory concentration, Escherichia coli ATCC25922 [3]: 3750 ± 0.54 µg/mL (≈ 7.84 mM); Minimum inhibitory concentration, Staphylococcus aureus ATCC25923 [4]: 3750 ± 0.04 µg/mL (≈ 7.84 mM); viability at 24 h, 3.1 µg/mL [5, 17]: 105 ± 1.96%; viability at 48 h, 3.1 µg/mL [5, 17]: 96.7 ± 2.96%; viability at 24 h, 6.25 µg/mL [5, 17]: 106 ± 2.3%; viability at 48 h, 6.25 µg/mL [5, 17]: 101 ± 3.63%; viability at 24 h, 12.5 µg/mL [5, 17]: 106 ± 3.74%; viability at 48 h, 12.5 µg/mL [5, 17]: 97.4 ± 1.99%; viability at 24 h, 25 µg/mL [5, 17]: 105 ± 1.88%; viability at 48 h, 25 µg/mL [5, 17]: 96.6 ± 2.02%; viability at 24 h, 50 µg/mL [5, 17]: 84 ± 2.12%; viability at 48 h, 50 µg/mL [5, 17]: 68 ± 1.61%; Minimum biofilm inhibition concentration (MBIC), Enterococcus faecalis ATCC29212 ([7]; 24 h): 1870 ± 0.06 µg/mL; Minimum biofilm inhibition concentration (MBIC), Escherichia coli ATCC25922 ([8]; 24 h): 3750 ± 0.48 µg/mL; Qualitative antimicrobial activity, Enterococcus faecalis ATCC29212 [11]: -; Qualitative antimicrobial activity, Escherichia coli ATCC25922 [12]: -; Qualitative antimicrobial activity, Staphylococcus aureus ATCC25923 [13]: -; melting point: 133 to 135 °C
3 | C[C@@H]1CC[C@@]2(OC1)O[C@H]1C[C@H]3[C@@H]4CC=C5C[C@@H](O[C@@H]6O[C@H](CO)[C@@H](O[C@@H]7O[C@@H](C)[C@H](O)[C@@H](O)[C@H]7O)[C@H](O)[C@H]6O[C@@H]6O[C@@H](C)[C@H](O)[C@@H](O)[C@H]6O)CC[C@]5(C)[C@H]4CC[C@]3(C)[C@H]1[C@@H]2C [dioscin, reference compound] |  |  |  |  |  |  |  |  |  |  | 97.09 ± 0.43 | 76.7 ± 2.01 | 58.92 ± 0.3 | 13.9 ± 0.18 | 11.5 ± 0.14 | 95.99 ± 0.53 | 62 ± 1.78 | 38 ± 2.09 | 7.49 ± 1.32 | 7.27 ± 1.14 | IC50 [15]: 15.8 ± 2.19 µg/mL (≈ 0.0182 mM); viability at 24 h, 3.1 µg/mL [5, 17]: 94.3 ± 2.49%; viability at 48 h, 3.1 µg/mL [5, 17]: 94.2 ± 1.66%; viability at 24 h, 6.25 µg/mL [5, 17]: 93 ± 3.24%; viability at 48 h, 6.25 µg/mL [5, 17]: 72.6 ± 1.67%; viability at 24 h, 12.5 µg/mL [5, 17]: 38.7 ± 2.55%; viability at 48 h, 12.5 µg/mL [5, 17]: 37 ± 2.55%; viability at 24 h, 25 µg/mL [5, 17]: 14.9 ± 2.63%; viability at 48 h, 25 µg/mL [5, 17]: 8.55 ± 1.26%; viability at 24 h, 50 µg/mL [5, 17]: 13.7 ± 2.06%; viability at 48 h, 50 µg/mL [5, 17]: 7.14 ± 1.28%
